Calls of active or inactive are those of the source. The calls are words filed in the database; no cut-off is given here.
Experiments:
Rattus norvegicus [1] = assay: Acute toxicity in po dosed rat; type: organism-based; details: in vivo
Cannabinoid receptor 2 = Cannabinoid receptor 2 (Homo sapiens, UniProt P34972); assay: Displacement of [3H]WIN-55212-2 from human CB2 receptor expressed in CHO-K1 cells after 1 hr by liquid scintillation counting; type: cell-based
[2] = Selectivity ratio of IC50 for human CB2 receptor to IC50 for CB1 receptor in Sprague-Dawley rat cerebellum; type: tissue-based
Mus musculus [3] = assay: Antiobesity activity in diet-induced obesity C57BL/6 mouse model assessed as reduction of body weight at 10 mg/kg, po qd for 14 days; type: functional; design: scale not given: the % may be the effect or the level left
Mus musculus [4] = assay: Antiobesity activity in po dosed diet-induced obesity C57BL/6 mouse model assessed as reduction of body weight administered qd for 13 days; type: functional, organism-based
Mus musculus [5] = assay: Antiobesity activity in diet-induced obesity C57BL/6 mouse model assessed as reduction of body weight at 10 mg/kg, po qd for 13 days; type: functional; design: scale not given: the % may be the effect or the level left
Mus musculus [6] = assay: Antiobesity activity in diet-induced obesity C57BL/6 mouse model assessed as reduction of body weight at 20 mg/kg, po qd for 13 days; type: functional; design: scale not given: the % may be the effect or the level left
Mus musculus [7] = assay: Antiobesity activity in diet-induced obesity C57BL/6 mouse model assessed as reduction of body weight at 3 mg/kg, po qd for 13 days; type: functional
Mus musculus [8] = assay: Antiobesity activity in po dosed diet-induced obesity C57BL/6 mouse model assessed as reduction mean white adipocytes diameter qd for 14 days; type: functional, organism-based
Rattus norvegicus [9] = assay: Antiobesity activity in diet-induced obesity Sprague-Dawley rat model assessed as reduction of body weight administered at 10 mg/kg, po qd for 13 days; type: functional; design: scale not given: the % may be the effect or the level left
Mus musculus [10] = assay: Antidiabetic activity in ob/ob mouse at 10 mg/kg, po qd for 14 days; type: functional, organism-based; design: dose 10 mg/kg
Mus musculus [11] = assay: Antidiabetic activity in db/db mouse at 10 mg/kg, po qd for 14 days; type: functional, organism-based; design: dose 10 mg/kg
Mus musculus [12] = assay: Antidiabetic activity in diet-induced obesity mouse model at 10 mg/kg, po qd for 14 days; type: functional, organism-based; design: dose 10 mg/kg
[13] = Tmax in Sprague-Dawley rat at 5 mg/kg, po; type: ADME, organism-based; design: dose 5 mg/kg, route oral; details: in vivo
[14] = Cmax in Sprague-Dawley rat at 5 mg/kg, po; type: ADME, organism-based; design: dose 5 mg/kg, route oral; details: in vivo
[15] = Cmax in Sprague-Dawley rat at 1 mg/kg, iv; type: ADME, organism-based; design: dose 1 mg/kg, route intravenous; details: in vivo
Rattus norvegicus [16] = assay: Clast in Sprague-Dawley rat at 5 mg/kg, po; type: ADME, organism-based; design: dose 5 mg/kg, route oral; details: in vivo
Rattus norvegicus [17] = assay: Clast in Sprague-Dawley rat at 1 mg/kg, iv; type: ADME, organism-based; design: dose 1 mg/kg, route intravenous; details: in vivo
[18] = Half life in Sprague-Dawley rat at 5 mg/kg, po; type: ADME, organism-based; design: dose 5 mg/kg, route oral; details: in vivo
[19] = Half life in Sprague-Dawley rat at 1 mg/kg, iv; type: ADME, organism-based; design: dose 1 mg/kg, route intravenous; details: in vivo
[20] = Clearance in Sprague-Dawley rat at 1 mg/kg, iv; type: ADME, organism-based; design: dose 1 mg/kg, route intravenous; details: in vivo
Rattus norvegicus [21] = assay: AUC (0 to infinity) in Sprague-Dawley rat at 5 mg/kg, po; type: ADME, organism-based, Plasma; design: time infinity, dose 5 mg/kg, route oral; details: in vivo
Rattus norvegicus [22] = assay: AUC (0 to infinity) in Sprague-Dawley rat at 1 mg/kg, iv; type: ADME, organism-based, Plasma; design: time infinity, dose 1 mg/kg, route intravenous; details: in vivo
[23] = Oral bioavailability in Sprague-Dawley rat at 5 mg/kg, po; type: ADME, organism-based; details: in vivo
[24] = Ratio of drug level in brain to plasma in Sprague-Dawley rat; type: ADME
Cytochrome P450 1A2 = biological target: T1, Cytochrome P450 1A2 (Homo sapiens, UniProt P05177); assay: Inhibition of CYP1A2 in human liver microsomes after 30 mins; type: ADME, Microsome
T1 sequence (P05177 whole entry): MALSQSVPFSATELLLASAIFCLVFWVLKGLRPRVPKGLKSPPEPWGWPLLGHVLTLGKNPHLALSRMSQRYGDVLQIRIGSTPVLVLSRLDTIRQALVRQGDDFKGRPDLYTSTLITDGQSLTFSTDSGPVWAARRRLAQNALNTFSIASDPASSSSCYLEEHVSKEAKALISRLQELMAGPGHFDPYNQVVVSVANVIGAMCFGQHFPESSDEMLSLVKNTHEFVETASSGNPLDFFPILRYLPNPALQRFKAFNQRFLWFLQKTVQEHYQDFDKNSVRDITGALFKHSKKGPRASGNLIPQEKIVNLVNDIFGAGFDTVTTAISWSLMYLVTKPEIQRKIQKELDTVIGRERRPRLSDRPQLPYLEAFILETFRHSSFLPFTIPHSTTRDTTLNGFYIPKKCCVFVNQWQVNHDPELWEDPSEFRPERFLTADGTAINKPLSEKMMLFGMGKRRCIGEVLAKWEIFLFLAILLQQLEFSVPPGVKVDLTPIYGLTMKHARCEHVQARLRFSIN

Cytochrome P450 2C9 = Cytochrome P450 2C9 (Homo sapiens, UniProt P11712); assay: Inhibition of CYP2C9 in human liver microsomes after 30 mins; type: ADME, Microsome
Cytochrome P450 3A4 = Cytochrome P450 3A4 (Homo sapiens, UniProt P08684); assay: Inhibition of CYP3A4 in human liver microsomes after 30 mins; type: ADME, Microsome
[25] = biological target: Voltage-gated inwardly rectifying potassium channel KCNH2 (Homo sapiens, UniProt Q12809); assay: Inhibition of human ERG at holding potential of -80 mV to +40 mV
Nucleic Acid = assay: Induction of DNA damage up to 50 uM after 2 hrs by comet assay; type: nucleic-acid assay
[26] = Mutagenic activity in Salmonella Typhimurium TA100 assessed as number of spontaneous and drug-induced revertants after 48 hrs by Ames test; type: toxicity; details: salmonella enterica subsp. enterica serovar typhimurium
[27] = Cytotoxicity against human HuH7 cells; type: cell-based; details: Huh-7
Vero = assay: Cytotoxicity against african green monkey Vero cells; type: cell-based; details: Chlorocebus sabaeus
HCT-116 = assay: Cytotoxicity against human HCT116 cells; type: cell-based
HEK293 = assay: Cytotoxicity against human HEK293 cells; type: cell-based
Rattus norvegicus [28] = assay: Acute toxicity in rat assessed as mortality at 2000 mg/kg, po; type: organism-based; design: dose 2000 mg/kg, route oral; details: in vivo
Rattus norvegicus [29] = assay: Acute toxicity in rat assessed as mortality at 1500 mg/kg, po; type: organism-based; design: dose 1500 mg/kg, route oral; details: in vivo
[30] = Acute toxicity in po dosed rat assessed as mortality; type: organism-based; details: in vivo
Rattus norvegicus [31] = assay: Acute toxicity in rat assessed as mortality at 1000 mg/kg, po qd for 7 days; type: organism-based; design: dose 1000 mg/kg, route oral; details: in vivo, 168 h
Rattus norvegicus [32] = assay: Acute toxicity in rat assessed as mortality at 500 mg/kg, po qd for 7 days; type: organism-based; design: dose 500 mg/kg, route oral; details: in vivo, 168 h
Rattus norvegicus [33] = assay: Acute toxicity in rat assessed as mortality at 250 mg/kg, po qd for 7 days; type: organism-based; design: dose 250 mg/kg, route oral; details: in vivo, 168 h
Rattus norvegicus [34] = assay: Acute toxicity in rat assessed as mortality at 125 mg/kg, po qd for 7 days; type: organism-based; design: dose 125 mg/kg, route oral; details: in vivo, 168 h
Cytochrome P450 2D6 = Cytochrome P450 2D6 (Homo sapiens, UniProt P10635); assay: Inhibition of CYP2D6 in human liver microsomes after 30 mins; type: ADME, Microsome
Cannabinoid receptor 1 = Cannabinoid receptor 1 (Rattus norvegicus, UniProt P20272)
Chain of Cannabinoid receptor 1 (P20272 whole entry): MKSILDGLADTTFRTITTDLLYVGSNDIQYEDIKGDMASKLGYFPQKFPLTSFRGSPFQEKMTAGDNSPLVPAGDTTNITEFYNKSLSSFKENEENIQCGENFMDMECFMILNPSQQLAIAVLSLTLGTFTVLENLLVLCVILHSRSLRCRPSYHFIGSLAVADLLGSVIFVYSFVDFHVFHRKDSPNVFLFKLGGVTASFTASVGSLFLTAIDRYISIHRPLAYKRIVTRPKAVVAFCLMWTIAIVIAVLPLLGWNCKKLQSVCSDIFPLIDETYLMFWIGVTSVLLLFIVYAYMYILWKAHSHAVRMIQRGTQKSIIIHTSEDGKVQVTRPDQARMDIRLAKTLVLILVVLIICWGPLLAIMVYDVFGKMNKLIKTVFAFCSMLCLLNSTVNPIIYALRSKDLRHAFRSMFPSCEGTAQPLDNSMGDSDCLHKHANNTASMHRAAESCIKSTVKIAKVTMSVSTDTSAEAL
Description: Displacement of [3H]CP-55940 from CB1 receptor in Sprague-Dawley rat cerebellum after 1 hr by liquid scintillation counting

Chain of Cytochrome P450 2D6 (P10635 whole entry): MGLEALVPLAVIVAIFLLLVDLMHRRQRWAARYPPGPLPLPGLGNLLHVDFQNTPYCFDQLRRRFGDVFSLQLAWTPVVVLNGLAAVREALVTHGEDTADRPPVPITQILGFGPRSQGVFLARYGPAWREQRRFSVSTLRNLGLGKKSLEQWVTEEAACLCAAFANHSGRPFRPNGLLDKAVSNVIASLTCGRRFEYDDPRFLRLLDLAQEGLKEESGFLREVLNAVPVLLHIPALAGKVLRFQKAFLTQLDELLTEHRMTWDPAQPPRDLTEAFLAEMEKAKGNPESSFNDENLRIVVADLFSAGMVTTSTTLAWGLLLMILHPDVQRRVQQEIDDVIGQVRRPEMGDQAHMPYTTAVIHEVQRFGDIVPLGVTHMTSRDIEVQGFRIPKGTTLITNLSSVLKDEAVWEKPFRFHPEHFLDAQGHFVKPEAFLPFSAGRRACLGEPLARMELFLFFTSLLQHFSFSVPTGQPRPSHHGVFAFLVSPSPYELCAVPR
Chain of Cytochrome P450 2C9 (P11712 whole entry): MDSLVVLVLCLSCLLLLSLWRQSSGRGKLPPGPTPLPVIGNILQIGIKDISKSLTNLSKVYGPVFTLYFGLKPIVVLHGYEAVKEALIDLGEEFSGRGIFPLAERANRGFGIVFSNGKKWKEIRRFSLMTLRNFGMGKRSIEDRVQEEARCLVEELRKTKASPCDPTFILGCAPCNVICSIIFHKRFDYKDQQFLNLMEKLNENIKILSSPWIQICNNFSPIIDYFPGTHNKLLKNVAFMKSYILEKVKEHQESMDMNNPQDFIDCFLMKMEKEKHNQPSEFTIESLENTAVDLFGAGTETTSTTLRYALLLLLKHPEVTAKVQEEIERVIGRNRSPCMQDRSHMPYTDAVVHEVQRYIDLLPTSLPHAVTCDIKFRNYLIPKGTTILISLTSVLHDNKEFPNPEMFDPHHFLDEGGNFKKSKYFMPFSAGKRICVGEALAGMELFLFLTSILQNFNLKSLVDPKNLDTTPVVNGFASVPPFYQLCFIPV
Chain of Cannabinoid receptor 2 (P34972 whole entry): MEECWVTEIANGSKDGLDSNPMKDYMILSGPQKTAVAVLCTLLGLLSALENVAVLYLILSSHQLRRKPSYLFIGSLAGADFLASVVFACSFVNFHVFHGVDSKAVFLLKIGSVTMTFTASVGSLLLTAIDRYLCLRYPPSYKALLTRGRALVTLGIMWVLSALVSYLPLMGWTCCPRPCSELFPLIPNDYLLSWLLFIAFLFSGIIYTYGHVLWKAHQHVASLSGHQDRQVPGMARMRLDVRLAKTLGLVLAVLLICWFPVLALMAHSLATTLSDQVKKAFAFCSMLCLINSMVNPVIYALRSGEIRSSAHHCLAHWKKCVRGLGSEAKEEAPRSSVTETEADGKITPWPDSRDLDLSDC
Chain of Voltage-gated inwardly rectifying potassium channel KCNH2 (Q12809 whole entry): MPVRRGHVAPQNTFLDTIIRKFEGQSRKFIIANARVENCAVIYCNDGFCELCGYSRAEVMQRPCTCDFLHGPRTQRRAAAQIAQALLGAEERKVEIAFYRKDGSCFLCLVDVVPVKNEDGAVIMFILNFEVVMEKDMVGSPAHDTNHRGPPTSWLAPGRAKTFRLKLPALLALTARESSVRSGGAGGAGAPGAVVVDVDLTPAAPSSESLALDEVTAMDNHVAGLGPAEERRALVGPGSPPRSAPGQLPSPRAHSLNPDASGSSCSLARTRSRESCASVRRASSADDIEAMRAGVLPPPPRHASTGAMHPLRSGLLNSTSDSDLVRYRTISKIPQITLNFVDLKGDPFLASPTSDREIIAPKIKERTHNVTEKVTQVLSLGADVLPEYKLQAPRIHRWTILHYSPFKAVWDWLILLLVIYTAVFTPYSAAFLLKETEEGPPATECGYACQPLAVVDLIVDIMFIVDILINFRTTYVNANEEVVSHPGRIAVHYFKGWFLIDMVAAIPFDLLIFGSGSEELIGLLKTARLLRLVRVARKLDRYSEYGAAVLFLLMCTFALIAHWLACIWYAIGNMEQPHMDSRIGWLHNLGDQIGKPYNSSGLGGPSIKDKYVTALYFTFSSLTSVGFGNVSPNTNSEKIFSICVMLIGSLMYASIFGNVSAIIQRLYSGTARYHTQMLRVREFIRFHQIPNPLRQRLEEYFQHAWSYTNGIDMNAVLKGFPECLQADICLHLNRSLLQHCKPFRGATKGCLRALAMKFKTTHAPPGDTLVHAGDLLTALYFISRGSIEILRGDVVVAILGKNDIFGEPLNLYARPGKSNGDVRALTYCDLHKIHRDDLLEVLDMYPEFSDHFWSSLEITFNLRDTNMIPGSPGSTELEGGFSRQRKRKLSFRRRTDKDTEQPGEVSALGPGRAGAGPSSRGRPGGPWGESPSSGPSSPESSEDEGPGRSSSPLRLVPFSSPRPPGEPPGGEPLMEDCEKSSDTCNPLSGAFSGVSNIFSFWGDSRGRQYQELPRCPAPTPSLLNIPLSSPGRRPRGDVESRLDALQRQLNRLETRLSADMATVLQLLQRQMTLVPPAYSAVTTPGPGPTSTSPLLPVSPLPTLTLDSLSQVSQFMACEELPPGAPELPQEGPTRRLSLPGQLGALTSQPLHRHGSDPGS
Chain of Cytochrome P450 3A4 (P08684 whole entry): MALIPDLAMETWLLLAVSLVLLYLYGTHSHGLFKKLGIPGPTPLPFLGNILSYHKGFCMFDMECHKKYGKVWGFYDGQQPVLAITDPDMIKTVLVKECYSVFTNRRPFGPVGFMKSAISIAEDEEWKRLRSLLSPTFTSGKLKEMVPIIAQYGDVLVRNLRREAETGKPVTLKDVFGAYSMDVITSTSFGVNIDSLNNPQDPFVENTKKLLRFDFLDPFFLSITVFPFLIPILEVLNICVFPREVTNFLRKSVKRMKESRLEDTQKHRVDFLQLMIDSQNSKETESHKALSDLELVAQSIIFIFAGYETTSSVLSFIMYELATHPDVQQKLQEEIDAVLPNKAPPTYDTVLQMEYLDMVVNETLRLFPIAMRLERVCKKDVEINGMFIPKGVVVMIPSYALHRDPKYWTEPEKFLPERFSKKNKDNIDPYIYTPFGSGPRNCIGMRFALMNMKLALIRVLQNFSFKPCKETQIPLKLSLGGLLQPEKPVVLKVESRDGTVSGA

With `CC(C)(C)c1nnc(-c2nn(-c3ccccc3Cl)c(-c3ccc(Br)cc3)c2Cn2cncn2)s1` the Activity (Rattus norvegicus [1]) was 125 mg/kg, the IC50 (Cannabinoid receptor 2) was 0.549 µM and the Ratio IC50 [2] was 807. The Activity (Mus musculus [3]) was 32.55%, the Activity (Mus musculus [4]) was “Dose-dependent effect” and the Activity (Mus musculus [5]) was 34.9%. For the same molecule, the Activity (Mus musculus [6]) was 38.06%, the Activity (Mus musculus [7]) was “Active” and the Activity (Mus musculus [8]) was “Dose-dependent effect”. For the same molecule, the Activity (Rattus norvegicus [9]) was 15.59%, the Activity (Mus musculus [10]) was “Active” and the Activity (Mus musculus [11]) was “Active”. For the same molecule, the Activity (Mus musculus [12]) was “Active”, the Tmax [13] was 1 h and the Cmax [14] was 1530 ng/mL. The Cmax [15] was 2500 ng/mL, the Clast (Rattus norvegicus [16]) was 30 ng/mL and the Clast (Rattus norvegicus [17]) was 50 ng/mL. It also gave a half-life [18] of 7.11 h, a half-life [19] of 5.3 h and a clearance [20] of 10.7 mL/min/kg. It also gave an AUC (Rattus norvegicus [21]) of 369.72 min/µg/mL, an AUC (Rattus norvegicus [22]) of 119.9 min/µg/mL and a bioavailability [23] of 61.7%. For the same molecule, the BPR [24] was 58%, the IC50 (Cytochrome P450 1A2) was over 20 µM and the IC50 (Cytochrome P450 2C9) was over 20 µM. The IC50 (Cytochrome P450 3A4) was over 20 µM, the IC50 [25] was 10.5 µM and the Activity (Nucleic Acid) was “Non-toxic”. The Activity [26] was “Non-toxic”, the EC50 [27] was over 100 µM and the EC50 (Vero) was over 100 µM. The EC50 (HCT-116) was over 100 µM, the EC50 (HEK293) was over 100 µM and the Activity (Rattus norvegicus [28]) was “Non-toxic”. The Activity (Rattus norvegicus [29]) was “Non-toxic”, the LD50 [30] was over 2000 mg/kg and the Activity (Rattus norvegicus [31]) was “Non-toxic”. For the same molecule, the Activity (Rattus norvegicus [32]) was “Non-toxic”, the Activity (Rattus norvegicus [33]) was “Non-toxic” and the Activity (Rattus norvegicus [34]) was “Non-toxic”. The IC50 (Cytochrome P450 2D6) was over 20 µM and the IC50 (Cannabinoid receptor 1) was 0.000681 µM.

Source: ChEMBL document CHEMBL1221281, “Discovery of 2-(4-((1H-1,2,4-triazol-1-yl)methyl)-5-(4-bromophenyl)-1-(2-chlorophenyl)-1H-pyrazol-3-yl)-5-tert-butyl-1,3,4-thiadiazole (GCC2680) as a potent, selective and orally efficacious cannabinoid-1 receptor antagonist” (Bioorg Med Chem, 2010)
